Laboratory results published in publication PMC5218480 (PLoS ONE, 2017).

Test system: MV-4-11 cells
Experiment: Gene expression microarray analysis (Affymetrix PrimeView) and GSEA
Assay type: cell-based, human
Design: RFU PODN (11730768_x_at) / Fold change /veh PODN (11730768_x_at) / RFU LINC00158 (11744669_a_at) / Fold change /veh LINC00158 (11744669_a_at) / RFU DUSP10 (11751237_a_at) / Fold change /veh DUSP10 (11751237_a_at) / RFU ID3 (11757404_x_at) / Fold change /veh ID3 (11757404_x_at) / RFU PLEKHG5 (11737974_s_at) / Fold change /veh PLEKHG5 (11737974_s_at) / RFU LRRC4B (11730491_at) / Fold change /veh LRRC4B (11730491_at) / RFU GIMAP4 (11747438_a_at) / Fold change /veh GIMAP4 (11747438_a_at) / RFU KRT8 (11758183_x_at) / Fold change /veh KRT8 (11758183_x_at) / RFU CNN1 (11734310_a_at) / Fold change /veh CNN1 (11734310_a_at) / RFU VPS37D (11726825_at) / Fold change /veh VPS37D (11726825_at) / RFU C10orf10 (11716522_x_at) / Fold change /veh C10orf10 (11716522_x_at) / RFU KIR2DL2 /// KIR2DL4 /// KIR2DL5A /// KIR2DL5B /// KIR2DS1 /// KIR2DS2 /// KIR2DS3 /// KIR2DS4 /// KIR3DL3 /// KIR3DL3 /// KIR3DS1 (11738374_at) / Fold change /veh KIR2DL2 /// KIR2DL4 /// KIR2DL5A /// KIR2DL5B /// KIR2DS1 /// KIR2DS2 /// KIR2DS3 /// KIR2DS4 /// KIR3DL3 /// KIR3DL3 /// KIR3DS1 (11738374_at) / RFU C1QL1 (11718748_at) / Fold change /veh C1QL1 (11718748_at) / RFU TMPRSS4 (11747572_a_at) / Fold change /veh TMPRSS4 (11747572_a_at) / RFU HAMP (11756126_x_at) / Fold change /veh HAMP (11756126_x_at) / RFU RNFT2 (11725882_a_at) / Fold change /veh RNFT2 (11725882_a_at) / RFU NR4A2 (11747474_a_at) / Fold change /veh NR4A2 (11747474_a_at) / RFU ABCC12 (11746883_a_at) / Fold change /veh ABCC12 (11746883_a_at) / RFU TMEM136 (11760407_x_at) / Fold change /veh TMEM136 (11760407_x_at) / RFU CLDN22 /// WWC2 (11732394_at) / Fold change /veh CLDN22 /// WWC2 (11732394_at) / RFU HLA-DPB1 (11760878_x_at) / Fold change /veh HLA-DPB1 (11760878_x_at) / RFU SPINT1 (11716480_a_at) / Fold change /veh SPINT1 (11716480_a_at) / RFU GAP43 (11754022_s_at) / Fold change /veh GAP43 (11754022_s_at) / RFU A4GNT (11735810_at) / Fold change /veh A4GNT (11735810_at) / RFU PRB3 (11715151_x_at) / Fold change /veh PRB3 (11715151_x_at) / RFU TUBB4B (11761932_at) / Fold change /veh TUBB4B (11761932_at) / RFU CAPN14 (11732068_a_at) / Fold change /veh CAPN14 (11732068_a_at) / RFU TMCC2 (11721928_a_at) / Fold change /veh TMCC2 (11721928_a_at) / RFU IRGQ (11745062_a_at) / Fold change /veh IRGQ (11745062_a_at) / RFU FAM174B (11720279_a_at) / Fold change /veh FAM174B (11720279_a_at) / RFU TMPRSS4 (11748680_a_at) / Fold change /veh TMPRSS4 (11748680_a_at) / RFU FAM212B (11763350_a_at) / Fold change /veh FAM212B (11763350_a_at) / RFU PLEKHG5 (11743358_a_at) / Fold change /veh PLEKHG5 (11743358_a_at) / RFU ZSCAN30 (11745921_a_at) / Fold change /veh ZSCAN30 (11745921_a_at) / RFU CMKLR1 (11741424_a_at) / Fold change /veh CMKLR1 (11741424_a_at) / RFU LOC101060620 /// MAPK8IP1 (11723275_at) / Fold change /veh LOC101060620 /// MAPK8IP1 (11723275_at) / RFU SPTSSB (11747773_x_at) / Fold change /veh SPTSSB (11747773_x_at) / RFU PRSS12 (11739890_at) / Fold change /veh PRSS12 (11739890_at) / RFU BIN1 (11741810_x_at) / Fold change /veh BIN1 (11741810_x_at) / RFU WNT11 (11732464_a_at) / Fold change /veh WNT11 (11732464_a_at) / RFU C10orf10 (11716521_a_at) / Fold change /veh C10orf10 (11716521_a_at) / RFU C5orf56 (11738089_at) / Fold change /veh C5orf56 (11738089_at) / RFU CYB561 (11721691_x_at) / Fold change /veh CYB561 (11721691_x_at) / RFU ANKRD19P (11752326_a_at) / Fold change /veh ANKRD19P (11752326_a_at) / RFU OR2T12 /// OR2T33 /// OR2T8 (11738714_s_at) / Fold change /veh OR2T12 /// OR2T33 /// OR2T8 (11738714_s_at) / RFU VCAN (11748164_a_at) / Fold change /veh VCAN (11748164_a_at) / RFU JSRP1 (11732532_at) / Fold change /veh JSRP1 (11732532_at) / RFU KRTAP10-11 (11738290_x_at) / Fold change /veh KRTAP10-11 (11738290_x_at) / RFU MYO3A (11730013_a_at) / Fold change /veh MYO3A (11730013_a_at) / RFU EBF3 (11725865_a_at) / Fold change /veh EBF3 (11725865_a_at) / RFU CAMK2N1 (11719241_x_at) / Fold change /veh CAMK2N1 (11719241_x_at) / RFU C5orf56 (11738088_a_at) / Fold change /veh C5orf56 (11738088_a_at) / RFU OLFML3 (11715873_a_at) / Fold change /veh OLFML3 (11715873_a_at) / RFU LOC100653217 /// NTM (11731650_a_at) / Fold change /veh LOC100653217 /// NTM (11731650_a_at) / RFU MAPK11 (11762145_a_at) / Fold change /veh MAPK11 (11762145_a_at) / RFU FIZ1 (11724087_x_at) / Fold change /veh FIZ1 (11724087_x_at) / RFU OASL (11726364_x_at) / Fold change /veh OASL (11726364_x_at) / RFU SOX15 (11748057_x_at) / Fold change /veh SOX15 (11748057_x_at) / RFU CD79A (11719716_a_at) / Fold change /veh CD79A (11719716_a_at) / RFU HIST1H1D (11736915_at) / Fold change /veh HIST1H1D (11736915_at) / RFU CASKIN2 (11723855_a_at) / Fold change /veh CASKIN2 (11723855_a_at) / RFU LOC730098 (11760151_x_at) / Fold change /veh LOC730098 (11760151_x_at) / RFU OR4N2 (11742367_at) / Fold change /veh OR4N2 (11742367_at) / RFU PRRT2 (11749266_a_at) / Fold change /veh PRRT2 (11749266_a_at) / RFU SNX32 (11753110_a_at) / Fold change /veh SNX32 (11753110_a_at) / RFU CDHR5 (11726645_a_at) / Fold change /veh CDHR5 (11726645_a_at) / RFU RCAN1 (11760418_a_at) / Fold change /veh RCAN1 (11760418_a_at) / RFU FAM167A (11723789_a_at) / Fold change /veh FAM167A (11723789_a_at) / RFU FAM26E (11764081_at) / Fold change /veh FAM26E (11764081_at) / RFU ISYNA1 (11749810_s_at) / Fold change /veh ISYNA1 (11749810_s_at) / RFU ACY1 (11761880_at) / Fold change /veh ACY1 (11761880_at) / RFU 11764098_at / Fold change /veh 11764098_at / RFU SAMD14 (11745864_x_at) / Fold change /veh SAMD14 (11745864_x_at) / RFU NPB (11741838_a_at) / Fold change /veh NPB (11741838_a_at) / RFU TMPRSS6 (11731388_a_at) / Fold change /veh TMPRSS6 (11731388_a_at) / RFU KRTAP10-2 (11738614_at) / Fold change /veh KRTAP10-2 (11738614_at) / RFU ARHGAP8 /// PRR5-ARHGAP8 (11727945_x_at) / Fold change /veh ARHGAP8 /// PRR5-ARHGAP8 (11727945_x_at) / RFU KRTAP5-7 /// NADSYN1 (11734609_at) / Fold change /veh KRTAP5-7 /// NADSYN1 (11734609_at) / RFU RASL12 (11751679_a_at) / Fold change /veh RASL12 (11751679_a_at) / RFU CDKN2B (11736163_a_at) / Fold change /veh CDKN2B (11736163_a_at) / RFU PRF1 (11729649_at) / Fold change /veh PRF1 (11729649_at) / RFU, ZNF638 /// ZNF638-IT1 / Fold change vs veh, ZNF638 /// ZNF638-IT1 / RFU, PANK3 / Fold change vs veh, PANK3 / RFU, SH3YL1 / Fold change vs veh, SH3YL1 / RFU, ZEB2 / Fold change vs veh, ZEB2 / RFU, NRIP1 / Fold change vs veh, NRIP1 / RFU, PTTG1IP / Fold change vs veh, PTTG1IP / RFU, CAPN2 / Fold change vs veh, CAPN2 / RFU, MED14 / Fold change vs veh, MED14 / RFU, SNORA58 / Fold change vs veh, SNORA58 / RFU, C1orf63 / Fold change vs veh, C1orf63 / RFU, LRRFIP1 / Fold change vs veh, LRRFIP1 / RFU, NDUFAF7 / Fold change vs veh, NDUFAF7 / RFU, SLC12A2 / Fold change vs veh, SLC12A2 / RFU, IBTK / Fold change vs veh, IBTK / RFU, ESF1 / Fold change vs veh, ESF1 / Fold change vs veh, TMEM50B / RFU, TAOK1 / Fold change vs veh, TAOK1 / RFU, ACBD3 / Fold change vs veh, ACBD3 / RFU, TMA16 / Fold change vs veh, TMA16 / RFU, RWDD3 / Fold change vs veh, RWDD3 / RFU, BCAT1 / Fold change vs veh, BCAT1 / RFU, EDEM3 / Fold change vs veh, EDEM3 / RFU, TMEM33 / Fold change vs veh, TMEM33 / RFU, WDR75 / Fold change vs veh, WDR75 / RFU, AHCTF1 / Fold change vs veh, AHCTF1 / RFU, TFRC / Fold change vs veh, TFRC / RFU, ZDHHC17 / Fold change vs veh, ZDHHC17 / RFU, NOM1 / Fold change vs veh, NOM1 / RFU, ARL8B / Fold change vs veh, ARL8B / RFU, ZBTB11 / Fold change vs veh, ZBTB11 / RFU, TAMM41 / Fold change vs veh, TAMM41 / RFU, KIAA1704 /// LOC100996395 / Fold change vs veh, KIAA1704 /// LOC100996395 / RFU, ING1 / Fold change vs veh, ING1 / RFU, TRMT61B / Fold change vs veh, TRMT61B / RFU, FUBP3 / Fold change vs veh, FUBP3 / RFU, TP53 / Fold change vs veh, TP53 / RFU, TNKS2 / Fold change vs veh, TNKS2 / RFU, ZFP14 / Fold change vs veh, ZFP14 / RFU, ACTR2 / Fold change vs veh, ACTR2 / RFU, PPP3R1 / Fold change vs veh, PPP3R1 / RFU, PIK3R1 / Fold change vs veh, PIK3R1 / RFU, HNRNPA1 / Fold change vs veh, HNRNPA1 / RFU, RNF170 / Fold change vs veh, RNF170 / RFU, ZNF28 / Fold change vs veh, ZNF28 / RFU, RNGTT / Fold change vs veh, RNGTT / RFU, OGT / Fold change vs veh, OGT / RFU, BRD1 / Fold change vs veh, BRD1 / RFU, MARS / Fold change vs veh, MARS / RFU, ZNF655 / Fold change vs veh, ZNF655 / RFU, FAHD1 / Fold change vs veh, FAHD1 / RFU, BDP1 / Fold change vs veh, BDP1 / RFU, LRRCC1 / Fold change vs veh, LRRCC1 / RFU, ARID1A / Fold change vs veh, ARID1A / RFU, ZNF146 / Fold change vs veh, ZNF146 / RFU, ZNF330 / Fold change vs veh, ZNF330 / RFU, GPN3 / Fold change vs veh, GPN3 / RFU, C9orf123 / Fold change vs veh, C9orf123 / RFU, N4BP2L2 / Fold change vs veh, N4BP2L2 / RFU, ARFIP1 / Fold change vs veh, ARFIP1 / RFU, FAM179B / Fold change vs veh, FAM179B / RFU, BCL10 / Fold change vs veh, BCL10 / RFU, UHRF1BP1L / Fold change vs veh, UHRF1BP1L / RFU, BET1 / Fold change vs veh, BET1 / RFU, CNOT2 / Fold change vs veh, CNOT2 / RFU, ZNF268 / Fold change vs veh, ZNF268 / Fold change vs veh, ZNF507 / RFU, DGCR2 / Fold change vs veh, DGCR2 / RFU, WDSUB1 / Fold change vs veh, WDSUB1 / Fold change vs veh, HSP90B1 /// MIR3652 / RFU, ADSS / Fold change vs veh, ADSS / RFU, GK / Fold change vs veh, GK / RFU, ZNF148 / Fold change vs veh, ZNF148 / RFU, TAF9 / Fold change vs veh, TAF9 / RFU, SLC1A5 / Fold change vs veh, SLC1A5 / RFU, SLMO2 / Fold change vs veh, SLMO2 / RFU, ABCC4 / Fold change vs veh, ABCC4 / RFU, LOC101060439 /// RAP1B / Fold change vs veh, LOC101060439 /// RAP1B / RFU, RFX7 / Fold change vs veh, RFX7 / RFU, GTPBP10 / Fold change vs veh, GTPBP10 / RFU, CNEP1R1 / Fold change vs veh, CNEP1R1 / RFU, BIVM-ERCC5 /// ERCC5 / Fold change vs veh, BIVM-ERCC5 /// ERCC5 / RFU, ILF3 / Fold change vs veh, ILF3 / RFU 11762660_at / Fold change /veh 11762660_at / RFU VCAN (11757783_s_at) / Fold change /veh VCAN (11757783_s_at) / RFU DDX43 (11728927_at) / Fold change /veh DDX43 (11728927_at) / RFU KRT8 (11758188_x_at) / Fold change /veh KRT8 (11758188_x_at) / RFU NKD1 (11759106_at) / Fold change /veh NKD1 (11759106_at) / RFU SRD5A1 (11742802_a_at) / Fold change /veh SRD5A1 (11742802_a_at) / RFU TPSAB1 /// TPSB2 (11721975_s_at) / Fold change /veh TPSAB1 /// TPSB2 (11721975_s_at) / RFU GSTM3 (11746129_a_at) / Fold change /veh GSTM3 (11746129_a_at) / RFU IL23R (11737362_x_at) / Fold change /veh IL23R (11737362_x_at) / RFU TMEM51 (11727254_a_at) / Fold change /veh TMEM51 (11727254_a_at) / RFU PIWIL2 (11732686_x_at) / Fold change /veh PIWIL2 (11732686_x_at) / RFU ORM1 (11744905_x_at) / Fold change /veh ORM1 (11744905_x_at) / RFU CCDC152 (11743942_at) / Fold change /veh CCDC152 (11743942_at) / RFU ECM1 (11717891_a_at) / Fold change /veh ECM1 (11717891_a_at) / RFU IL23R (11748794_a_at) / Fold change /veh IL23R (11748794_a_at) / RFU TNFAIP8L3 (11732012_x_at) / Fold change /veh TNFAIP8L3 (11732012_x_at) / RFU MBOAT4 (11741988_at) / Fold change /veh MBOAT4 (11741988_at) / RFU 11764193_at / Fold change /veh 11764193_at / RFU TMEM53 (11763286_at) / Fold change /veh TMEM53 (11763286_at) / RFU MAGEB2 (11727129_at) / Fold change /veh MAGEB2 (11727129_at) / RFU TMEM200A (11744735_a_at) / Fold change /veh TMEM200A (11744735_a_at) / RFU CCDC152 (11751479_a_at) / Fold change /veh CCDC152 (11751479_a_at) / RFU FAM211A (11726209_a_at) / Fold change /veh FAM211A (11726209_a_at) / RFU RGS16 (11746705_a_at) / Fold change /veh RGS16 (11746705_a_at) / RFU VCAN (11755009_s_at) / Fold change /veh VCAN (11755009_s_at) / RFU RHOB (11743442_s_at) / Fold change /veh RHOB (11743442_s_at) / RFU RGS16 (11720943_a_at) / Fold change /veh RGS16 (11720943_a_at) / RFU RGS16 (11720944_at) / Fold change /veh RGS16 (11720944_at) / RFU, VPS4B / Fold change vs veh, VPS4B / RFU, CREB1 / Fold change vs veh, CREB1 / RFU, DNAJC13 / Fold change vs veh, DNAJC13 / RFU, GNAQ / Fold change vs veh, GNAQ / RFU, CDK5R1 / Fold change vs veh, CDK5R1 / RFU, ZRANB3 / Fold change vs veh, ZRANB3 / RFU, CUL4A / Fold change vs veh, CUL4A / RFU, CCNY / Fold change vs veh, CCNY / RFU, UFL1 / Fold change vs veh, UFL1 / RFU, COG3 / Fold change vs veh, COG3 / RFU, DIAPH2 / Fold change vs veh, DIAPH2 / RFU, SKA2 / Fold change vs veh, SKA2 / RFU, AFF3 / Fold change vs veh, AFF3 / RFU, LMF1 / Fold change vs veh, LMF1 / RFU, IPO11 / Fold change vs veh, IPO11 / RFU, DFFB / Fold change vs veh, DFFB / RFU, FOXP1 / Fold change vs veh, FOXP1 / RFU, CARD8 / Fold change vs veh, CARD8 / RFU, STRN3 / Fold change vs veh, STRN3 / RFU, ADK / Fold change vs veh, ADK / RFU, RASSF2 / Fold change vs veh, RASSF2 / RFU, WIPF1 / Fold change vs veh, WIPF1 / RFU, LARP1B / Fold change vs veh, LARP1B / RFU, RASA1 / Fold change vs veh, RASA1 / RFU, RB1 / Fold change vs veh, RB1 / RFU, PPFIA1 / Fold change vs veh, PPFIA1 / RFU, MAT2A / Fold change vs veh, MAT2A / RFU, CCT5 / Fold change vs veh, CCT5 / RFU, WDR92 / Fold change vs veh, WDR92 / RFU, CUX1 / Fold change vs veh, CUX1 / RFU, TTC7A / Fold change vs veh, TTC7A / RFU, TMEM135 / Fold change vs veh, TMEM135 / RFU, DEPTOR / Fold change vs veh, DEPTOR / RFU, CPM / Fold change vs veh, CPM / RFU, DNAJB6 / Fold change vs veh, DNAJB6 / RFU, CACNA2D3 / Fold change vs veh, CACNA2D3 / RFU, DTX4 / Fold change vs veh, DTX4 / RFU, TFCP2 / Fold change vs veh, TFCP2 / RFU, GMCL1 /// GMCL1P1 / Fold change vs veh, GMCL1 /// GMCL1P1 / RFU, AEBP2 / Fold change vs veh, AEBP2 / RFU, SNHG1 /// SNORD22 /// SNORD25 /// SNORD26 /// SNORD27 /// SNORD28 /// SNORD29 /// SNORD31 / Fold change vs veh, SNHG1 /// SNORD22 /// SNORD25 /// SNORD26 /// SNORD27 /// SNORD28 /// SNORD29 /// SNORD31 / Fold change (Aza/veh), C12orf56 (ProbeSet 11735607_a_at) / Fold change (ACY-1035/veh), C12orf56 (ProbeSet 11735607_a_at) / Fold change (Aza/veh), FGFR1OP (ProbeSet 11751329_s_at) / Fold change (ACY-1035/veh), FGFR1OP (ProbeSet 11751329_s_at) / Fold change (Aza/veh), VPS36 (ProbeSet 11739960_a_at) / Fold change (ACY-1035/veh), VPS36 (ProbeSet 11739960_a_at) / RFU SYPL1 (11715823_x_at) / Fold change /veh SYPL1 (11715823_x_at) / RFU IGFBP7 (11715501_s_at) / Fold change /veh IGFBP7 (11715501_s_at) / RFU REEP3 (11722064_at) / Fold change /veh REEP3 (11722064_at) / RFU IGLL1 (11728026_x_at) / Fold change /veh IGLL1 (11728026_x_at): dose or concentration left out as unconfirmed
Settings: ProbeSet 11757113_a_at; LIST D

## Nc1ccc(-c2cccs2)cc1NC(=O)c1ccc2c(c1)cc(C1CC1)n2CCN1CCOCC1 [ACY-1035]
  Fold change vs veh, SNHG1 /// SNORD22 /// SNORD25 /// SNORD26 /// SNORD27 /// SNORD28 /// SNORD29 /// SNORD31: 0.87
